Where a name gives a salt, the structure may show the parent alone.
CCCCCCC(NCCCCC)c1nc(-c2ccccc2)c[nH]1 (racemic) [Example 75, (R,S)-N-pentyl-1-(4-phenyl-1H-imidazol-2-yl)-1-heptanamine]
melting point: 118 to 120 °C

CCCCCCC(NCc1ccccc1)c1nc(-c2ccccc2OC)c[nH]1 (racemic) [Example 201, (R,S)-N-benzyl-1-[4-(2-methoxyphenyl)-1H-imidazol-2-yl]-1-heptanamine]
melting point: 155 to 157 °C

CC(C)(NC(=O)OCc1ccccc1)c1nc(-c2ccc(-c3ccccc3)cc2)c[nH]1 [Example 247, 4-[2-(1-{[(benzyloxy)carbonyl]amino}-1-methylethyl)-1H-imidazol-4-yl]-1,1′-biphenyl]
melting point: 148 to 152 °C

c1ccc(CC[C@@H](NCc2ccccc2)c2nc(-c3ccc(-c4ccccc4)cc3)c[nH]2)cc1 [Example 170, (1R)-N-benzyl-1-(4-[1,1′-biphenyl]-4-yl-1H-imidazol-2-yl)-3-phenyl-1-propanamine]
melting point: 210 to 213 °C

Fc1ccc(-c2c[nH]c([C@@H](Cc3ccccc3)NC3CCCCC3)n2)cc1 (as salt: hydrochloride) [Example 327, N-{(1R)-1-[4-(4-fluorophenyl)-1H-imidazol-2-yl]-2-phenylethyl}cyclohexanamine]
melting point: 210 to 213 °C

CCCCCC(NCc1ccccc1)c1nc(-c2ccccc2)c[nH]1 (racemic) [Example 202, (R,S)-N-benzyl-1-(4-phenyl-1H-imidazol-2-yl)-1-hexanamine]
melting point: 192 to 194 °C

CC(C)N[C@H](c1nc(-c2ccc(F)cc2)c[nH]1)C1CCCCC1 [Example 261, N-{(S)-cyclohexyl[4-(4-fluorophenyl)-1H-imidazol-2-yl]methyl}-2-propanamine]
melting point: 210 to 212 °C

CCCCOC(=O)NC(C)(C)c1nc(-c2ccc(-c3ccccc3)cc2)c[nH]1 [Example 238, 4-(2-{1-[(butoxycarbonyl)amino]-1-methylethyl}-1H-imidazol-4-yl)-1,1′-biphenyl]
melting point: 170 to 172 °C

Fc1ccc(-c2c[nH]c(C(CCCC(F)(F)F)NC3CCCCC3)n2)cc1 (racemic) [Example 136, (R,S)-N-{5,5,5-trifluoro-1-[4-(4-fluorophenyl)-1H-imidazol-2-yl]pentyl}cyclohexanamine]
melting point: 220 °C

CNCc1nc(-c2ccccc2)c(C)[nH]1 (as salt: hydrochloride) [Example 158, N-methyl-(5-methyl-4-phenyl-1H-imidazol-2-yl)methanamine]
melting point: 218 to 220 °C

CCCCOC(=O)NCCc1nc(-c2ccc(CCC)cc2)c[nH]1 [Example 449, butyl 2-[4-(4-propylphenyl)-1H-imidazol-2-yl]ethylcarbamate]
melting point: 83.2 °C

CC(C)(C)OC(=O)N[C@H](Cc1c[nH]c2ccccc12)c1nc(C(C)(C)C)c[nH]1 [Example 50, tert-butyl (1R)-1-(4-tert-butyl-1H-imidazol-2-yl)-2-(1H-indol-3-yl)-ethylcarbamate]
melting point: 104 to 106 °C

c1ccc(CN[C@@H](Cc2c[nH]c3ccccc23)c2nc(-c3ccccc3)c[nH]2)cc1 [Example 93, (1S)-N-benzyl-2-(1H-indol-3-yl)-1-(4-phenyl-1H-imidazol-2-yl)ethanamine]
melting point: 118 to 120 °C

CC(C)(C)OC(=O)NCCc1nc(-c2ccc(-c3ccccc3)cc2)c[nH]1 [Example 152, 4-(2-{2-[(tert-butoxycarbonyl)amino]ethyl}-1H-imidazol-4-yl)-1,1′-biphenyl]
melting point: 140 to 142 °C

c1ccc(CN[C@H](Cc2c[nH]c3ccccc23)c2nc(-c3ccccc3)c[nH]2)cc1 [Example 88, (1R)-N-benzyl-2-(1H-indol-3-yl)-1-(4-phenyl-1H-imidazol-2-yl)ethanamine]
melting point: 100 to 102 °C

CCCCCCOC(=O)NCCc1nc(-c2ccc(-c3ccccc3)cc2)c[nH]1 [Example 255, hexyl 2-(4-[1,1′-biphenyl]-4-yl-1H-imidazol-2-yl)ethylcarbamate]
melting point: 116.5 to 116.8 °C

Cn1cc(-c2ccccc2)nc1[C@@H](Cc1c[nH]c2ccccc12)NC(=O)OC(C)(C)C [Example 148, tert-butyl (1R)-2-(1H-indol-3-yl)-1-(1-methyl-4-phenyl-1H-imidazol-2-yl)ethylcarbamate]
melting point: 96 to 100 °C

FC(F)(F)c1cccc(-c2c[nH]c([C@@H](NCC3CCCCC3)C3CCCCC3)n2)c1 [Example 305, (S)-1-cyclohexyl-N-(cyclohexylmethyl)-1-{4-[3-(trifluoromethyl)-phenyl]-1H-imidazol-2-yl}methanamine]
melting point: 143.9 °C

NC(Cc1c[nH]c2cc(Cl)ccc12)c1nc(-c2ccccc2)c[nH]1 (racemic) (as salt: hydrochloride) [Example 122, (R,S)-2-(6-chloro-1H-indol-3-yl)-1-(4-phenyl-1H-imidazol-2-yl)ethylamine]
melting point: 210 to 212 °C

c1ccc(CNCc2nc(-c3ccc(-c4ccccc4)cc3)c[nH]2)cc1 (as salt: hydrochloride) [Example 168, N-benzyl(4-[1,1′-biphenyl]4-yl-1H-imidazol-2-yl)methanamine]
melting point: > 250 °C

c1ccc(CNCCCc2nc(-c3ccc(-c4ccccc4)cc3)c[nH]2)cc1 [Example 178, N-benzyl-3-(4-[1,1′-biphenyl]-4-yl-1H-imidazol-2-yl)-1-propanamine]
melting point: 254 to 256 °C

NCCCc1nc(-c2ccc(-c3ccccc3)cc2)c[nH]1 (as salt: hydrochloride) [Example 179, 3-(4-[1,1′-biphenyl]-4-yl-1H-imidazol-2-yl)-1-propanamine]
melting point: > 260 °C

FC(F)(F)c1ccc(-c2c[nH]c([C@@H](NC3CCCCC3)C3CCCCC3)n2)cc1 (as salt: hydrochloride) [Example 296, N-((S)-cyclohexyl{4-[4-(trifluoromethyl)phenyl]-1H-imidazol-2-yl}methyl)cyclohexanamine]
melting point: 214.1 °C

CCC[C@@H](NCc1ccccc1)c1nc(-c2ccccc2)c[nH]1 [Example 214, (1R)-N-benzyl-1-(4-phenyl-1H-imidazol-2-yl)-1-butanamine]
melting point: 218 to 220 °C

NC(Cc1c[nH]c2ccc(F)cc12)c1nc(-c2ccc(F)cc2)c[nH]1 (racemic) (as salt: hydrochloride) [Example 253, (R,S)-2-(5-fluoro-1H-indol-3-yl)-1-[4-(4-fluorophenyl)-1H-imidazol-2-yl]ethylamine]
melting point: 220 to 222 °C

N[C@H](Cc1ccccc1)c1nc(-c2ccc(F)cc2)c[nH]1 (as salt: hydrochloride) [Example 324, (1R)-1-[4-(4-fluorophenyl)-1H-imidazol-2-yl]-2-phenylethanamine]
melting point: 173 to 180 °C

CC(C)(C)CC(=O)NCCc1nc(-c2ccc(-c3ccccc3)cc2)c[nH]1 [Example 61, N-[2-(4-[1,1′-biphenyl]-4-yl-1H-imidazol-2-yl)ethyl]-3,3-dimethyl-butanamide]
melting point: 186 to 188 °C

c1ccc(CN[C@H](Cc2c[nH]c3ccccc23)c2nc(-c3ccccc3)cs2)cc1 [Example 100, (1R)-N-benzyl-2-(1H-indol-3-yl)-1-(4-phenyl-1,3-thiazol-2-yl)ethanamine]
melting point: 134 to 136 °C

O=C(N[C@H](Cc1c[nH]c2ccccc12)c1nc(-c2ccccc2)c[nH]1)c1ccccc1 [Example 98, N-[(1R)-2-(1H-indol-3-yl)-1-(4-phenyl-1H-imidazol-2-yl)ethyl]benzamide]
melting point: 218 to 220 °C

CCCCOC(=O)NCCc1nc(-c2ccc(C(C)(C)C)cc2)c[nH]1 [Example 294, butyl 2-[4-(4-tert-butylphenyl)-1H-imidazol-2-yl]ethylcarbamate]
melting point: 106 to 108 °C

CN(Cc1nc(-c2ccccc2)c(-c2ccccc2)[nH]1)C(=O)OC(C)(C)C [Example 156, tert-butyl (4,5-diphenyl-1H-imidazol-2-yl)methyl(methyl)carbamate]
melting point: 170 to 172 °C

CC(C)(C)OC(=O)N[C@H](CCc1ccccc1)c1nc(-c2ccc(-c3ccccc3)cc2)c[nH]1 [Example 167, 4-(2-{(1R)-1-[(tert-butoxycarbonyl)amino]-3-phenylpropyl}-1H-imidazol-4-yl)-1,1′-biphenyl]
melting point: 154 to 156 °C

CCCCCCC(N)c1nc(-c2ccccc2)c[nH]1 (racemic) (as salt: hydrochloride) [Example 142, (R,S)-1-(4-phenyl-1H-imidazol-2-yl)heptylamine]
melting point: 131 to 134 °C

CC(C)COC(=O)NCCc1nc(-c2ccc(C(C)(C)C)cc2)c[nH]1 [Example 339, isobutyl 2-[4-(4-tert-butylphenyl)-1H-imidazol-2-yl]ethylcarbamate]
melting point: 110.6 °C

CCCCCCC(NCCC)c1nc(-c2ccccc2)c[nH]1 (racemic) [Example 224, (R,S)-N-[1-(4-phenyl-1H-imidazol-2-yl)heptyl]-N-propylamine]
melting point: 94 to 98 °C

CCCCOC(=O)NCCc1nc(-c2ccc(-c3cccc(F)c3)cc2)c[nH]1 [Example 444, butyl 2-[4-(3′-fluoro-1,1′-biphenyl-4-yl)-1H-imidazol-2-yl]ethylcarbamate]
melting point: 141.5 °C

CCCCOC(=O)NCCc1nc(-c2ccc(-c3cccc(OC)c3)cc2)c[nH]1 [Example 461, butyl 2-[4-(3′-methoxy-1,1′-biphenyl-4-yl)-1H-imidazol-2-yl]ethylcarbamate]
melting point: 112 to 113 °C

Brc1cccc(-c2c[nH]c([C@@H](NC3CCCCC3)C3CCCCC3)n2)c1 (as salt: hydrochloride) [Example 297, N-[(S)-[4-(3-bromophenyl)-1H-imidazol-2-yl](cyclohexyl)methyl]-cyclohexanamine]
melting point: 230.4 °C

CC[C@H](N)c1nc(-c2ccccc2)c(-c2ccccc2)[nH]1 (as salt: hydrochloride) [Example 199, (1S)-1-(4,5-diphenyl-1H-imidazol-2-yl)-1-propanamine]
melting point: 224 to 226 °C

CCCCCCC(NC1CCC1)c1nc(-c2ccccc2)c[nH]1 (racemic) [Example 240, (R,S)-N-[1-(4-phenyl-1H-imidazol-2-yl)heptyl]cyclobutanamine]
melting point: 148 to 150 °C

— patent publication US7291641B2, “Derivatives of heterocycles with 5 members, their preparation and their use as medicaments” (Societe de Conseils de Recherches et d'Applications …, priority 1999, dated 2007)
